From patent US8969556B2, “Purine-based triazoles” (Case Western Reserve University, priority 2010, dated 2015)
Entries after “also recorded” stand apart in the source; their conditions may differ.

Test system: hippocampal slice cultures
Test: Aβ oligomer-induced neuronal cell death by PI staining (PI uptake) in hippocampal slice cultures
Settings: compound 1 μM, 1 h pretreatment, then Aβ oligomers 5 μM, 48 h; mouse hippocampal slices
Procedure: In this Example, we used a convenient assay for neuronal cell death, which was induced by incubation with Aβ oligomers in hippocampal slice cultures. The binding of propidium iodide (PI) with DNA of dead cells gives characteristic fluorescence that could be followed by fluorescence microscopy. Since PI is impermeable to live cell membranes, the observed fluorescence is indicative of the extent of dead cell populations.
1.0 mg of Δβ1-42 peptide was dissolved in 120 μL of hexafluoroisopropanol for 60 min at room temperature, and placed back on ice for 5-10 min. Hexafluoroisopropanol was evaporated overnight in the hood at room temperature. The sample was dissolved by 100% DMSO by adding 20 μL of fresh anhydrous DMSO (Sigma Hybri-Max) to 0.45 mg of the peptide, and diluted to 5 mM peptide stock into medium. Diluted peptide was incubated at 4° C. for 24 h, and then centrifuged at 14,000 g for 10 min in the cold. Before treating slice culture with Δβ oligomers, the oligomers were incubated at room temperature for 20 h.
Hippocampal slice cultures were prepared from 7-10 day-old mouse pups. Slices were cut at 400 μm on a Mcllwain tissue chopper, transferred to Millicell (Millipore Corp., Bedford, Mass.) membrane inserts (0.4 μm), and placed in 6-well culture plated. The upper surfaces of the slices were exposed to a humidified 37° C. atmosphere containing 5% CO2. Slice culture media consisted of basal Eagles medium with Earle's balanced salt solution, 20% heat-inactivated horse serum, enriched with glucose to a concentration of 5.6 mM. The medium was changed every other day. Slices were examined periodically for viability, and any dark or abnormal slices were discarded.
The effects of Δβ oligomers were tested in the slices which had been maintained for 15-20 days in vitro. All reagents were added to serum free medium (no horse serum). Δβ oligomers were added to cultures in serum free medium. Vehicles were treated the same way except with no peptide.
To analyze the degree of hippocampal neuronal cell death, hippocampal slices were stained by adding PI into slice culture medium at a concentration of 5 μg/mL. At indicated times after Δβ oligomers treatment, the degree of hippocampal neuronal death was evaluated by microscopic observation of PI uptake as described previously. […] The intensity of the fluorescence was quantitatively analyzed using Scion Image. The images were expressed as an arbitrary unit of PI uptake.
Mouse hippocampal slice cultures were treated with Aβ oligomers in the presence of PI as the staining agent. The degree of hippocampal neuronal death was monitored by fluorescence microscopic observation of the PI uptake. The intensities of the fluorescence were conveniently analyzed using Scion images. The intensity of the PI fluorescence reflects the relative number of the dead cells, since PI cannot permeate the live cell membranes.

| Compound | neuroprotective effect against Aβ-induced neurotoxicity (neuronal cell survival, PI uptake) |
| --- | --- |
| Clc1nc(NCc2ccccc2)c2ncn(Cc3cn(Cc4ccccc4)nn3)c2n1 [Compound 6, 2-Chloro-6-benzylamino-9-(1-benzyl-1H-1,2,3-triazol-4-yl-methyl)purine] | only marginal effects |
| Fc1cccc(F)c1Cn1cc(Cn2cnc3c(NCc4ccccc4)nc(Cl)nc32)nn1 [Compound 8, 2-Chloro-6-benzylamino-9-[1-(2,6-difluorobenzyl)-1H-1,2,3-triazol-4-yl-methyl]purine] | only marginal effects |
| CN1CC[C@H](c2c(O)cc(O)c3c(=O)cc(-c4ccccc4Cl)oc23)[C@H](O)C1 [Flavopiridol, reference compound] | neuronal cell survival rates comparable to those of the control experiments |
| Fc1ccccc1Cn1cc(Cn2cnc3c(NCc4ccccc4)nc(Cl)nc32)nn1 [Compound 7, 2-Chloro-6-benzylamino-9-[1-(2-fluorobenzyl)-1H-1,2,3-triazol-4-yl-methyl]purine] | neuronal cell survival rates comparable to those of the control experiments; also recorded: effectively suppressed Aβ-induced neurotoxicity |
| CC[C@H](CO)Nc1nc(NCc2ccccc2)c2ncn(C(C)C)c2n1 [Roscovitine, reference compound] | neuronal cell survival rates comparable to those of the control experiments |
| Fc1c(F)c(F)c(Cn2cc(Cn3cnc4c(NCc5ccccc5)nc(Cl)nc43)nn2)c(F)c1F [Compound 9, 2-Chloro-6-benzylamino-9-[1-(pentafluorobenzyl)-1H-1,2,3-triazol-4-yl-methyl]purine] | virtually no neuroprotective effect |
